Measurements taken from patent US11884683B2, “Tricyclic heterocycle compounds useful as HIV integrase inhibitors” (Merck Sharp & Dohme LLC, priority 2018, dated 2024).
Where two headings read alike, the source gives them in different places.

Test system: HIV-1 (H9/IIIB strain)
Assay: Multiple round HIV-1 infection assay in MT4-GFP cells (wild type cell assay, Viking)
Type: cell-based
Settings: 0% NHS condition, MT4-GFP cells infected with HIV-1 H9/IIIB, inhibition of reproductive ratio R0, ~48 h and ~72 h post-infection, read-out: WILD TYPE CELL ASSAY Viking IP (0% NHS)
Protocol: Assessing Antiviral Potency in a Multiple Round HIV-1 Infection Assay
The antiviral activity of the Examples herein was assessed in an assay that measures the rate of replication of HIV in cell culture, and performed according to the following procedure. HIV-1 replication was monitored using MT4-gag-GFP clone D3 (hereafter designated MT4-GFP), which are MT-4 cells modified to harbor a GFP reporter gene, the expression of which is dependent on the HIV-1 expressed proteins tat and rev. Productive infection of an MT4-GFP cell with HIV-1 results in GFP expression approximately 24 h post-infection. MT4-GFP cells were maintained at 37° C./5% CO2/90% relative humidity in RPMI 1640 supplemented with 10% fetal bovine serum, 100 U/ml penicillin/streptomycin, and 400 μg/ml G418 to maintain the reporter gene. For infections, MT4-GFP cells were placed in the same medium lacking G418 and infected overnight with HIV-1 (H9/IIIB strain) virus at an approximate multiplicity of infection of 0.01 in the same incubation conditions. Cells were then washed and re-suspended in either RPMI 1640 at 2×10^5 cells/mL (0% NHS condition) or 100% normal human serum (NHS) at 2×10^5 cells/mL (100% NHS condition). Compound plates were prepared by dispensing compounds dissolved in DMSO into wells of 384 well poly-D-lysine-coated plates (0.2 μl/well) using an ECHO acoustic dispenser. Each compound was tested in a 10-point serial 3-fold dilution (typical final concentrations: 1050 nM-0.05 nM for 0% NHS condition or […]-2.13 nM for 100% NHS condition). Controls included no inhibitor (DMSO only) and a combination of three antiviral agents (efavirenz, indinavir, an in-house integrase strand transfer inhibitor at final concentrations of […] each). Cells were added ([…]) to compound plates and the infected cells were maintained at 37° C./5% CO2/90% relative humidity.
Infected cells were quantified at two time points, ˜48 h and ˜72 h post-infection, by counting the number of green cells in each well using an Acumen eX3 scanner. The increase in the number of green cells over ˜24 h period gives the reproductive ratio, RO, which is typically 5-15 and has been shown experimentally to be in logarithmic phase (data not shown). Inhibition of R0 is calculated for each well, and IC50s determined by non-linear 4-parameter curve fitting.

[1] = Human immunodeficiency virus 1, IIIB

**Q.** For CCC1N(C)C(=O)c2c(O)c(=O)c(C(=O)NCc3ccc(F)cc3F)c3n2N1CC3O (stereo not shown) [Compound 31], which IC50 [1] is on record?
**A.** 4.9 nM

**Q.** Which IC50 does the source give for CC1N(C)C(=O)c2c(O)c(=O)c(C(=O)NCc3c(F)ccc(F)c3F)c3n2N1CC3O (single isomer, unassigned) [Compound 22] here?
**A.** 2.3 nM

**Q.** With COCCN1CN2CC(O)c3c(C(=O)NCc4cccc(Cl)c4F)c(=O)c(O)c(n32)C1=O (stereo not shown) [Compound 42] as the molecule, how does the IC50 read?
**A.** 1.9 nM

**Q.** For CCN1CN2CC(O)c3c(C(=O)NCc4ccc(F)c(F)c4F)c(=O)c(O)c(n32)C1=O (stereo not shown) [Compound 60], which IC50 is on record?
**A.** 2.8 nM

**Q.** How did the IC50 turn out when CCN1C(=O)c2c(O)c(=O)c(C(=O)NCc3ccc(C(F)(F)F)cc3)c3n2N(CC3O)C1C (single isomer, unassigned) [Compound 78] was run?
**A.** 87 nM

**Q.** CCN1CN2CC(O)c3c(C(=O)NCc4cccc(Cl)c4F)c(=O)c(O)c(n32)C1=O (stereo not shown) [Compound 52] was tested. Which IC50 did it give?
**A.** 8.1 nM

**Q.** Which IC50 does the source give for CCN1CN2CC(O)c3c(C(=O)NCc4c(F)ccc(F)c4F)c(=O)c(O)c(n32)C1=O (stereo not shown) [Compound 48] here?
**A.** 2.3 nM

**Q.** CCC1N(C)C(=O)c2c(O)c(=O)c(C(=O)NCc3ccc(F)cc3F)c3n2N1CC3O (stereo not shown) [Compound 32] was tested. Which IC50 did it give?
**A.** 2.5 nM

**Q.** Which IC50 does the source give for COCCN1CN2CC(O)c3c(C(=O)NCc4c(F)cc(F)cc4F)c(=O)c(O)c(n32)C1=O (stereo not shown) [Compound 46] here?
**A.** 3.7 nM

**Q.** Which IC50 [1] does the source give for COCCN1CN2CC(O)c3c(C(=O)NCc4ccc(F)c(Cl)c4F)c(=O)c(O)c(n32)C1=O (stereo not shown) [Compound 39] here?
**A.** 2.2 nM

**Q.** Which IC50 does the source give for CCN1CN2CC(O)c3c(C(=O)NCc4cccc(Cl)c4F)c(=O)c(O)c(n32)C1=O (stereo not shown) [Compound 51] here?
**A.** 2.1 nM

**Q.** With CCN1C(=O)c2c(O)c(=O)c(C(=O)NCc3ccc(F)cc3F)c3n2N(CC3O)C1C (stereo not shown) [Compound 91] as the molecule, how does the IC50 [1] read?
**A.** 3.3 nM

**Q.** How did the IC50 [1] turn out when CCC1N(C)C(=O)c2c(O)c(=O)c(C(=O)NCc3c(F)cc(F)cc3F)c3n2N1CC3O (single isomer, unassigned) [Compound 33] was run?
**A.** 1.4 nM

**Q.** How did the IC50 turn out when CC1N(C)C(=O)c2c(O)c(=O)c(C(=O)NCc3ccc(F)cc3F)c3n2N1CC3O (single isomer, unassigned) [Compound 14] was run?
**A.** 1.4 nM

**Q.** For CN1C(=O)c2c(O)c(=O)c(C(=O)NCc3ccc(F)cc3F)c3n2N(CC3O)C12CCOC2 (single isomer, unassigned) [Compound 112], which IC50 is on record?
**A.** 1.7 nM

**Q.** How did the IC50 [1] turn out when CC1N(C)C(=O)c2c(O)c(=O)c(C(=O)NCc3ccc(F)cc3F)c3n2N1CC3O (single isomer, unassigned) [Compound 13] was run?
**A.** 1.7 nM

**Q.** With CCN1C(=O)c2c(O)c(=O)c(C(=O)NCc3ccc(C(F)F)cc3)c3n2N(CC3O)C1C (stereo not shown) [Compound 76] as the molecule, how does the IC50 read?
**A.** 88 nM

**Q.** With CCC1N(C)C(=O)c2c(O)c(=O)c(C(=O)NCc3c(F)ccc(Cl)c3F)c3n2N1CC3O (stereo not shown) [Compound 28] as the molecule, how does the IC50 read?
**A.** 3.3 nM

**Q.** For CCC1N(C)C(=O)c2c(O)c(=O)c(C(=O)NCc3c(F)ccc(Cl)c3F)c3n2N1CC3O (single isomer, unassigned) [Compound 26], which IC50 is on record?
**A.** 3.4 nM

**Q.** For COCCN1CN2CC(O)c3c(C(=O)NCc4ccc(F)c(Cl)c4F)c(=O)c(O)c(n32)C1=O (stereo not shown) [Compound 40], which IC50 is on record?
**A.** 2.1 nM

**Q.** For CCN1C(=O)c2c(O)c(=O)c(C(=O)NCc3ccc(C(F)(F)F)cc3)c3n2N(CC3O)C1C (single isomer, unassigned) [Compound 77], which IC50 is on record?
**A.** 258 nM

**Q.** How did the IC50 turn out when CC1N(C)C(=O)c2c(O)c(=O)c(C(=O)NCc3c(F)ccc(F)c3F)c3n2N1CC3O (stereo not shown) [Compound 24] was run?
**A.** 1.5 nM

**Q.** Which IC50 does the source give for CCC1N(C)C(=O)c2c(O)c(=O)c(C(=O)NCc3c(F)cc(F)cc3F)c3n2N1CC3O (stereo not shown) [Compound 36] here?
**A.** 1.5 nM

**Q.** Which IC50 does the source give for CCC1N(C)C(=O)c2c(O)c(=O)c(C(=O)NCc3c(F)cc(F)cc3F)c3n2N1CC3O (single isomer, unassigned) [Compound 34] here?
**A.** 2.8 nM

**Q.** With CCN1C(=O)c2c(O)c(=O)c(C(=O)NCc3c(F)ccc(Cl)c3F)c3n2N(CC3O)C1C (stereo not shown) [Compound 71] as the molecule, how does the IC50 [1] read?
**A.** 3.7 nM

**Q.** How did the IC50 [1] turn out when COCCN1CN2CC(O)c3c(C(=O)NCc4c(F)ccc(Cl)c4F)c(=O)c(O)c(n32)C1=O (stereo not shown) [Compound 43] was run?
**A.** 3.4 nM

**Q.** With CCN1C(=O)c2c(O)c(=O)c(C(=O)NCc3ccc(C(F)F)cc3)c3n2N(CC3O)C1C (single isomer, unassigned) [Compound 73] as the molecule, how does the IC50 [1] read?
**A.** 80 nM

**Q.** How did the IC50 turn out when CCN1C(=O)c2c(O)c(=O)c(C(=O)NCc3ccc(C(F)F)cc3)c3n2N(CC3O)C1C (stereo not shown) [Compound 75] was run?
**A.** 35 nM

**Q.** With CC1N(C)C(=O)c2c(O)c(=O)c(C(=O)NCc3c(F)ccc(F)c3F)c3n2N1CC3O (single isomer, unassigned) [Compound 21] as the molecule, how does the IC50 [1] read?
**A.** 1.4 nM

**Q.** How did the IC50 [1] turn out when CC1N(C)C(=O)c2c(O)c(=O)c(C(=O)NCc3c(F)ccc(F)c3F)c3n2N1CC3O (stereo not shown) [Compound 23] was run?
**A.** 2.3 nM

**Q.** CN1C(=O)c2c(O)c(=O)c(C(=O)NCc3c(F)ccc(Cl)c3F)c3n2N(CC3O)C12CCOC2 (single isomer, unassigned) [Compound 116] was tested. Which IC50 did it give?
**A.** 3.1 nM

**Q.** With CCN1CN2CC(O)c3c(C(=O)NCc4c(F)ccc(Cl)c4F)c(=O)c(O)c(n32)C1=O (stereo not shown) [Compound 53] as the molecule, how does the IC50 read?
**A.** 1.1 nM

**Q.** With CN1C(=O)c2c(O)c(=O)c(C(=O)NCc3c(F)ccc(Cl)c3F)c3n2N(CC3O)C12CCOC2 (stereo not shown) [Compound 118] as the molecule, how does the IC50 read?
**A.** 1.6 nM

**Q.** How did the IC50 [1] turn out when CN1C(=O)c2c(O)c(=O)c(C(=O)NCc3c(F)ccc(Cl)c3F)c3n2N(CC3O)C12CCOC2 (single isomer, unassigned) [Compound 115] was run?
**A.** 2 nM

**Q.** How did the IC50 [1] turn out when CCN1CN2CC(O)c3c(C(=O)NCc4ccc(F)c(F)c4F)c(=O)c(O)c(n32)C1=O (stereo not shown) [Compound 59] was run?
**A.** 2.5 nM

**Q.** Which IC50 does the source give for CCC1N(C)C(=O)c2c(O)c(=O)c(C(=O)NCc3ccc(F)cc3F)c3n2N1CC3O (single isomer, unassigned) [Compound 29] here?
**A.** 0.76 nM

**Q.** For CCN1C(=O)c2c(O)c(=O)c(C(=O)NCc3ccc(F)cc3)c3n2N(CC3O)C1C (stereo not shown) [Compound 88], which IC50 is on record?
**A.** 2.9 nM

**Q.** How did the IC50 turn out when CCN1C(=O)c2c(O)c(=O)c(C(=O)NCc3ccc(F)cc3)c3n2N(CC3O)C1C (single isomer, unassigned) [Compound 86] was run?
**A.** 1.3 nM

**Q.** How did the IC50 turn out when CCN1CN2CC(O)c3c(C(=O)NCc4ccccc4F)c(=O)c(O)c(n32)C1=O (stereo not shown) [Compound 63] was run?
**A.** 1.6 nM

**Q.** With CCN1C(=O)c2c(O)c(=O)c(C(=O)NCc3c(F)ccc(Cl)c3F)c3n2N(CC3O)C1C (single isomer, unassigned) [Compound 69] as the molecule, how does the IC50 [1] read?
**A.** 1.9 nM

**Q.** Which IC50 does the source give for COCCN1CN2CC(O)c3c(C(=O)NCc4c(F)ccc(Cl)c4F)c(=O)c(O)c(n32)C1=O (stereo not shown) [Compound 44] here?
**A.** 3.1 nM

**Q.** CCN1CN2CC(O)c3c(C(=O)NCc4ccccc4F)c(=O)c(O)c(n32)C1=O (stereo not shown) [Compound 64] was tested. Which IC50 did it give?
**A.** 5.9 nM

**Q.** CN1CN2CC(O)c3c(C(=O)NCc4ccc(F)cc4)c(=O)c(O)c(n32)C1=O (stereo not shown) [Compound 5] was tested. Which IC50 [1] did it give?
**A.** 3.5 nM

**Q.** With CCN1CN2CC(O)c3c(C(=O)NCc4ccc(F)c(Cl)c4F)c(=O)c(O)c(n32)C1=O (stereo not shown) [Compound 49] as the molecule, how does the IC50 read?
**A.** 2 nM

**Q.** How did the IC50 [1] turn out when CC1N(C)C(=O)c2c(O)c(=O)c(C(=O)NCc3c(F)cc(F)cc3F)c3n2N1CC3O (single isomer, unassigned) [Compound 17] was run?
**A.** 1.5 nM

**Q.** Which IC50 [1] does the source give for CCC1N(C)C(=O)c2c(O)c(=O)c(C(=O)NCc3c(F)ccc(Cl)c3F)c3n2N1CC3O (single isomer, unassigned) [Compound 25] here?
**A.** 2 nM

**Q.** CCC1N(C)C(=O)c2c(O)c(=O)c(C(=O)NCc3c(F)ccc(Cl)c3F)c3n2N1CC3O (stereo not shown) [Compound 27] was tested. Which IC50 [1] did it give?
**A.** 2.9 nM

**Q.** Which IC50 does the source give for CCN1CN2CC(O)c3c(C(=O)NCc4ccc(F)cc4)c(=O)c(O)c(n32)C1=O (stereo not shown) [Compound 61] here?
**A.** 1.9 nM

**Q.** With CCC1N(C)C(=O)c2c(O)c(=O)c(C(=O)NCc3ccc(F)cc3F)c3n2N1CC3O (single isomer, unassigned) [Compound 30] as the molecule, how does the IC50 read?
**A.** 1.6 nM
